# Results taken from patent US20260226019A1, “NEGATIVE ALLOSTERIC MODULATORS OF METABOTROPIC GLUTAMATE RECEPTOR 2” (Vanderbilt University, priority 2023, published 2026).
# Biological target: T1, human mGlu2 (Homo sapiens, UniProt Q14416)
# T1 construct: expressed in transfected cells; host or cells: HEK-293 stably co-expressing GIRK channels
# Experiment: mGlu GIRK cell-based thallium flux assay, human mGlu2
# Settings: HEK-293 cells co-expressing human mGlu2 and GIRK, EC80 glutamate, single experiment
# Protocol: Human embryonic kidney (HEK-293) cell lines stably co-expressing human or rat mGlu2 and G protein-coupled inwardly rectifying potassium (GIRK) channels, or human mGlu3 and GIRK, were used for in vitro evaluation of compound activity in thallium flux assay using a fluorescent thallium indicator dye.
# The day before the assay, GIRK cells co-expressing human mGlu3, human or rat mGlu2, as described above, were plated in black-walled, clear-bottomed, amine-coated 384-well plates at a density of 15,000 cells/[…]/well in the assay medium (glutamine-depleted basal DMEM supplemented with 10% dialyzed FBS, 20 mM HEPES, 1 mM sodium pyruvate). Cells were incubated at 37° C. in the presence of 5% CO2. The next day, assay buffer (Hanks balanced salt solution, 20 mM HEPES, 4.16 mM sodium bicarbonate, pH 7.2) was prepared to dilute compounds and Thallos AM fluorescent dye solution. The 2× Thallos dye solution (final concentration 0.34 μM to the cells) was prepared by mixing the dye stock (2.97 mM in DMSO) to 1:1 with 10% pluronic acid before adding to the assay buffer. Cells were washed with assay buffer using a microplate washer to remove the medium, resulting in 20 μL of buffer remaining in each well. […] During the cell dye loading incubation period, a 10-point concentration serial dilution of compound was created from a 10 mM DMSO compound stock by performing a 1:3 serial dilution in DMSO using the Bravo liquid handler. The 2× compound plate was generated by transferring 0.24 μL of the diluted compound in each well to a daughter plate using an Echo acoustic liquid handler. This is further diluted in 40 μL assay buffer, resulting in a range from […] to 1.5 nM final concentration in the assay. The agonist plate (5×) was prepared to include EC80 glutamate concentration (a concentration to elicit 80% of a maximally effective glutamate concentration) in thallium buffer (125 mM sodium bicarbonate, 1 mM magnesium sulfate, 1.8 mM calcium sulfate, 5 mM glucose, 10 mM HEPES, pH 7.2, 12.5 mM thallium sulfate).
# After dye-loading, cell plates were washed with assay buffer to remove excess extracellular dye using a microplate washer, resulting in 20 μL of buffer remaining in each well. After a ten-minute equilibration period, cell, compound and agonist plates were loaded into a Hamamatsu μCell kinetic imaging plate reader equipped with liquid handler to monitor fluorescence changes at 480 nm excitation and 540 nm emission settings. Briefly, after collection of baseline fluorescence, 20 μL of compound was added and incubated for two minutes and twenty seconds. This is immediately followed by adding 10 μL of glutamate-thallium buffer to the wells containing compound. The fluorescent signal was monitored an additional 2.5 minutes after the glutamate addition. Multiple reference wells containing no compound received either no glutamate (for a baseline reference), EC80 glutamate, or ECmax glutamate (for normalization to maximum response). […] Each compound concentration series occurred one time in each plate, and replicates from two or three plates were used in each experimental run. Thallium solutions were handled and disposed of according to guidelines from the Vanderbilt University Chemical Safety department.
# Data were normalized using a static ratio function (F/F0) by dividing every fluorescent measurement by the initial fluorescent value for the corresponding well. The increase in signal resulting from the glutamate/thallium addition of the second add was measured by determining the slope from 3 seconds to 13 seconds after the addition. The average of all baseline slopes (no compound, no glutamate) was determined and this value was subtracted from all other slope values. The average of all ECmax slopes was determined and this value was used to normalize the baseline-corrected slopes to a percent max value (% Emax).
# T1 sequence (Q14416 19-872): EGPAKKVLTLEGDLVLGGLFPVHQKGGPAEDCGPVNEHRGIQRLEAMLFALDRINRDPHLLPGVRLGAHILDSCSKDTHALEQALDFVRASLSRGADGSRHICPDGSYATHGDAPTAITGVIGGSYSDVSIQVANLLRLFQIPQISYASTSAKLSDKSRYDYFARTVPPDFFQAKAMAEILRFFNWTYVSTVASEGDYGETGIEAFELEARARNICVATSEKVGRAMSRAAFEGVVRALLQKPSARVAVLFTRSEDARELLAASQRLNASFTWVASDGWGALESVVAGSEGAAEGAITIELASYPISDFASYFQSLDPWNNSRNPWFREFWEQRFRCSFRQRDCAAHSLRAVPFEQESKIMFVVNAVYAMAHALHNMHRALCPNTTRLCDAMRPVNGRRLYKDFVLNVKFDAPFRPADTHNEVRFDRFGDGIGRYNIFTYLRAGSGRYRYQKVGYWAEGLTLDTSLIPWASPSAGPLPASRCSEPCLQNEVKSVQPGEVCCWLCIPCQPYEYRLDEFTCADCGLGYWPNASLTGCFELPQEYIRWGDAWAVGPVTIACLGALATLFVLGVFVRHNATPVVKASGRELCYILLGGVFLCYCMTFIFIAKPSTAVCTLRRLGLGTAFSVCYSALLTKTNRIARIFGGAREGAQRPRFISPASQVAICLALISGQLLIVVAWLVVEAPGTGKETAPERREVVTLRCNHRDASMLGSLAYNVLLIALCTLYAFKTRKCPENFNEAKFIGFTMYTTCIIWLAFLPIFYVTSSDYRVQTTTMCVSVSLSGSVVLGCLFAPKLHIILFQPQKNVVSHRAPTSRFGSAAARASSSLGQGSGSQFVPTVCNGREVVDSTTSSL
Structure (SMILES),IC50,Human mGlu2 GIRK IC50 (nM)
"CC(C)n1nccc1-c1cc(C2CCOCC2)cc2c1CNC2=O [Compound 88, 4-(1-isopropyl-1H-pyrazol-5-yl)-6-(tetrahydro-2H-pyran-4-yl)isoindolin-1-one]",1.7 µM,
"Cc1nn(C)c(C)c1-c1cc(C2=CCOCC2)cc2c1CNC2=O [Compound 92, 6-(3,6-dihydro-2H-pyran-4-yl)-4-(1,3,5-trimethyl-1H-pyrazol-4-yl)isoindolin-1-one]",0.424 µM,
"Cc1cc(-c2cc(C3=CCOCC3)cc3c2CNC3=O)n(C)n1 [Compound 96, 6-(3,6-dihydro-2H-pyran-4-yl)-4-(1,3-dimethyl-1H-pyrazol-5-yl)isoindolin-1-one]",0.38 µM,
"Cc1c(-c2cc(C3CCOCC3)cc3c2CNC3=O)cnn1C [Compound 99, 4-(1,5-dimethyl-1H-pyrazol-4-yl)-6-(tetrahydro-2H-pyran-4-yl)isoindolin-1-one]",2.95 µM,
"O=C1NCc2c1cc(-c1ccc(F)cc1F)cc2N1CC(O)(C(F)(F)F)C1 [Compound A19, 6-(2,4-difluorophenyl)-4-(3-hydroxy-3-(trifluoromethyl)azetidin-1-yl)isoindolin-1-one]",1.22 µM,
"O=C1NCc2c1cc(-c1ccc(F)cc1F)cc2N1C[C@H]2C[C@@H]1CO2 (racemic) [Compound A21, rac-4-((1R,4R)-2-oxa-5-azabicyclo[2.2.1]heptan-5-yl)-6-(2,4-difluorophenyl)isoindolin-1-one]",0.306 µM,
"N#Cc1c(F)cc(-c2cc3c(c(-c4cnsc4)c2)CNC3=O)cc1F [Compound 57, 2,6-difluoro-4-(7-(isothiazol-4-yl)-3-oxoisoindolin-5-yl)benzonitrile]",,Inactive
"COc1cc(C#N)ccc1-c1cc2c(c(-c3cnsc3)c1)CNC2=O [Compound 53, 4-(7-(isothiazol-4-yl)-3-oxoisoindolin-5-yl)-3-methoxybenzonitrile]",,Inactive
"Cc1cc(-c2cc3c(c(-c4cnsc4)c2)CNC3=O)c(F)cc1C#N [Compound 51, 5-fluoro-4-(7-(isothiazol-4-yl)-3-oxoisoindolin-5-yl)-2-methylbenzonitrile]",,Inactive
"Cc1ncccc1-c1cc(C2=CCOCC2)cc2c1CNC2=O [Compound 97, 6-(3,6-dihydro-2H-pyran-4-yl)-4-(2-methylpyridin-3-yl)isoindolin-1-one]",0.195 µM,
"Cc1cc(-c2cc3c(c(-c4cnsc4)c2)CNC3=O)c(F)cn1 [Compound 61, 6-(5-fluoro-2-methylpyridin-4-yl)-4-(isothiazol-4-yl)isoindolin-1-one]",1.19 µM,
"Cc1c(-c2cc(C3=CCOCC3)cc3c2CNC3=O)cnn1C [Compound 93, 6-(3,6-dihydro-2H-pyran-4-yl)-4-(1,5-dimethyl-1H-pyrazol-4-yl)isoindolin-1-one]",0.258 µM,
"O=C1NCc2c(CN3CC(O)(C(F)(F)F)C3)cc(-c3ccc(F)cc3F)cc21 [Compound B8, 6-(2,4-difluorophenyl)-4-((3-hydroxy-3-(trifluoromethyl)azetidin-1-yl)methyl)isoindolin-1-one]",0.193 µM,
"CCn1nccc1-c1cc(C2=CCOCC2)cc2c1CNC2=O [Compound 95, 6-(3,6-dihydro-2H-pyran-4-yl)-4-(1-ethyl-1H-pyrazol-5-yl)isoindolin-1-one]",0.323 µM,
"O=C1CC2(CN1)CN(c1cc(-c3ccc(F)cc3F)cc3c1CNC3=O)C2 [Compound A20, 6-(2,4-difluorophenyl)-4-(7-oxo-2,6-diazaspiro[3.4]octan-2-yl)isoindolin-1-one]",0.286 µM,

# The remaining lines, values ahead:
IC50,Human mGlu2 GIRK IC50 (nM),Structure (SMILES)
3.23 µM,,"O=C1NCc2c1cc(-c1ccc(F)cc1F)cc2-c1ccsc1 [Compound 15, 6-(2,4-difluorophenyl)-4-(thiophen-3-yl)isoindolin-1-one]"
0.303 µM,,"O=C1NCc2c1cc(-c1ccc(F)cc1F)cc2-c1ccnc(C(F)(F)F)c1 [Compound 90, 6-(2,4-difluorophenyl)-4-(2-(trifluoromethyl)pyridin-4-yl)isoindolin-1-one]"
0.433 µM,,"COc1cc(-c2cc(-c3ccc(F)cc3F)cc3c2CNC3=O)cc(C)n1 [Compound 91, 6-(2,4-difluorophenyl)-4-(2-methoxy-6-methylpyridin-4-yl)isoindolin-1-one]"
,Inactive,"O=C1NCc2c1cc(-c1ccc(F)cc1F)cc2-c1cc2ccccc2s1 [Compound 28, 4-(benzo[b]thiophen-2-yl)-6-(2,4-difluorophenyl)isoindolin-1-one]"
0.95 µM,,"O=C1NCc2c1cc(-c1ccc(F)cc1F)cc2-c1cncnc1 [Compound 37, 6-(2,4-difluorophenyl)-4-(pyrimidin-5-yl)isoindolin-1-one]"
> 10 µM,,"O=C1NCc2c1cc(-c1ccc(F)cc1F)cc2-c1cnn(C(F)F)c1 [Compound 8, 4-(1-(difluoromethyl)-1H-pyrazol-4-yl)-6-(2,4-difluorophenyl)isoindolin-1-one]"
2.38 µM,,"O=C1NCc2c1cc(-c1ccc(F)cc1F)cc2-c1ccc2cccnc2c1 [Compound 22, 6-(2,4-difluorophenyl)-4-(quinolin-7-yl)isoindolin-1-one]"
3.13 µM,,"O=C1NCc2c1cc(-c1ccc(F)cc1F)cc2-c1cnc(C(F)(F)F)nc1 [Compound 32, 6-(2,4-difluorophenyl)-4-(2-(trifluoromethyl)pyrimidin-5-yl)isoindolin-1-one]"
0.488 µM,,"Cc1cc2n(n1)CCN2c1cc(-c2ccc(F)cc2F)cc2c1CNC2=O [Compound A23, 6-(2,4-difluorophenyl)-4-(6-methyl-2,3-dihydro-1H-imidazo[1,2-b]pyrazol-1-yl)isoindolin-1-one]"
5.07 µM,,"N#Cc1ccc(-c2cc3c(c(-c4cnsc4)c2)CNC3=O)c(F)c1 [Compound 43, 3-fluoro-4-(7-(isothiazol-4-yl)-3-oxoisoindolin-5-yl)benzonitrile]"
3.17 µM,,"O=C1NCc2c1cc(-c1ccc(F)cc1F)cc2-c1cnn(C2CCCC2)c1 [Compound 16, 4-(1-cyclopentyl-1H-pyrazol-4-yl)-6-(2,4-difluorophenyl)isoindolin-1-one]"
0.118 µM,,"Cc1ccncc1-c1cc(-c2ccc(F)cc2F)cc2c1CNC2=O [Compound 89, 6-(2,4-difluorophenyl)-4-(4-methylpyridin-3-yl)isoindolin-1-one]"
2.56 µM,,"O=C1NCc2c1cc(-c1ccc(F)cc1F)cc2-c1cnn(C2CCC2)c1 [Compound 17, 4-(1-cyclobutyl-1H-pyrazol-4-yl)-6-(2,4-difluorophenyl)isoindolin-1-one]"
> 10 µM,,"COc1cc(F)ccc1-c1cc2c(c(-c3cnsc3)c1)CNC2=O [Compound 48, 6-(4-fluoro-2-methoxyphenyl)-4-(isothiazol-4-yl)isoindolin-1-one]"
1.38 µM,,"O=C1NCc2c1cc(-c1ccc(F)cc1F)cc2-c1ccc2cnccc2c1 [Compound 23, 6-(2,4-difluorophenyl)-4-(isoquinolin-6-yl)isoindolin-1-one]"
> 10 µM,,"Cc1cc(-c2cc3c(c(-c4cnsc4)c2)CNC3=O)c(F)cc1F [Compound 50, 6-(2,4-difluoro-5-methylphenyl)-4-(isothiazol-4-yl)isoindolin-1-one]"
2.69 µM,,"O=C1NCc2c1cc(-c1ccc(F)cc1F)cc2-c1ccc2ccncc2c1 [Compound 26, 6-(2,4-difluorophenyl)-4-(isoquinolin-7-yl)isoindolin-1-one]"
> 10 µM,,"O=C1NCc2c1cc(-c1ccc(OC(F)F)cc1F)cc2-c1cnsc1 [Compound 46, 6-(4-(difluoromethoxy)-2-fluorophenyl)-4-(isothiazol-4-yl)isoindolin-1-one]"
> 10 µM,,"Cn1cc2c(n1)CN(c1cc(-c3ccc(F)cc3F)cc3c1CNC3=O)C2 [Compound A22, 6-(2,4-difluorophenyl)-4-(2-methyl-2,6-dihydropyrrolo[3,4-c]pyrazol-5(4H)-yl)isoindolin-1-one]"
2.07 µM,,"O=C1NCc2c1cc(-c1ccc(F)cc1F)cc2-c1ccc(F)cc1F [Compound 4, 4,6-bis(2,4-difluorophenyl)isoindolin-1-one]"
